Structures are written as SMILES.

This assay concerns the target T1, human DGAT1 (Homo sapiens, UniProt O75907).
T1 construct: (N); made in house; host or cells: Sf9 insect cells infected with recombinant baculovirus BAC-DGAT1; microsome fraction
T1 sequence (O75907 1-488): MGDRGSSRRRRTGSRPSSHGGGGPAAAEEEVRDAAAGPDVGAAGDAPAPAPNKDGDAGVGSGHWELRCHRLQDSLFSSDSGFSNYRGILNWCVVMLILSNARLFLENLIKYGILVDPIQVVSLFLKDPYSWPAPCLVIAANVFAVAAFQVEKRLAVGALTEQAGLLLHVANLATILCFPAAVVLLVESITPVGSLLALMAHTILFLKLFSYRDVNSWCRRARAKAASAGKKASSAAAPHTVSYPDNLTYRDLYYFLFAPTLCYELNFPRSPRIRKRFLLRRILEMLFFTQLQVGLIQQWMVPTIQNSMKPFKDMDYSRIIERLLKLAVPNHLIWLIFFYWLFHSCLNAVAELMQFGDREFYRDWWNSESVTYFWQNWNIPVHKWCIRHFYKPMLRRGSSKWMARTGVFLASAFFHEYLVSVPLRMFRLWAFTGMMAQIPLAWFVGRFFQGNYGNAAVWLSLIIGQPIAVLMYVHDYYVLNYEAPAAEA
Nature of the assay: Determination of DGAT inhibitory activity (triglyceride synthesis with DGAT1 high expression Sf9 microsome). The class given is biochemical. The conditions noted are these: 25 μM dioleoylglycerol, 25 μM [14C]-Oleoyl-CoA, 32° C., 20 min, read-out: hDGAT1 IC50. How it is done: Human DGAT1 gene was cloned by PCR using human adipocyte cDNA (Clontech, QUICK-Clone cDNA, human fat cell, cat #637220) as a template and, based on the DGAT1 gene information reported by Case, S. et al. (Proc. Natl. Acad. Sci. U.S.A. 95 (22), 13018-13023 (1998)), a nucleotide sequence (245-1711 of Genbank Accession No. NM_012079) encoding DGAT1 was amplified with the following PCR primer. The primer nucleotide sequence is shown below.
The PCR reaction was conducted using a KOD-plus kit (TOYOBO). The obtained PCR product was electrophoresed on agarose gel (1%), the DNA fragment amplified by PCR was recovered from the gel, and then digested with restriction enzymes EcoRI and SpeI. The DNA treated with the restriction enzymes was electrophoresed on agarose gel (1%), and the obtained DNA fragment was recovered and ligated with plasmid pFASTBAC1 (Invitrogen) digested with restriction enzymes EcoRI and SpeI to give expression plasmid pFB-DGAT1. The nucleotide sequence of the inserted fragment was confirmed and found to be identical with the nucleotide sequence of DGAT1 (245-1711 of Genbank Accession No. NM_012079). Furthermore, using BAC-TO-BAC Baculovirus Expression System (Invitrogen), recombinant baculovirus BAC-DGAT1 was prepared.
SF9 cells were sown at 1×10^6 cells/ml on Sf-900II SFM medium (1 L, Invitrogen) containing 10% fetal calf serum (Trace), 50 mg/L gentamicin (Invitrogen) and 0.1% Pluronic F-68 (Invitrogen), and shaking culture was performed using a 2 L volume Erlenmeyer flask at 27° C., 100 rpm. After culturing for 24 hrs, recombinant baculovirus BAC-DGAT1 (6.7 mL) was added, and the mixture was further cultured for 3 days. The culture medium was centrifuged at 2,000 rpm for 5 min to give virus-infected cells. The infected cells were washed with a phosphate buffered saline (Invitrogen), centrifuged under the same conditions, and the cells were preserved at −80° C. The cryopreserved cells were thawed in ice, suspended in buffer A (50 mM Tris buffer (30 mL, pH 7.4) containing 20% glycerol, 0.15 M NaCl) supplemented with Complete Protease Inhibitor (Boehringer), and ruptured 3 times with a Polytron homogenizer (Kinematica) at 20,000 rpm for 30 sec. The Sf9 microsome fractions were obtained by a conventional method and cryopreserved at −80° C. as a DGAT1 high expression Sf9 microsome.
As a DGAT1 reaction buffer, a solution having a composition of 100 mM Tris-HCl (pH 7.5), 250 mM sucrose, 150 mM MgCl2, 0.01% bovine serum albumin (BSA) was used. Using this buffer, a given concentration of the test compound and a composition (100 μl) of 25 μM dioleoylglycerol, 25 μM [^14C]-Oleoyl-CoA, 5 μg protein/ml DGAT1 high expression Sf9 microsome, and 1% acetone were subjected to a triglyceride synthesis reaction at 32° C. for 20 min. A mixture of 300 μL of chloroform:methanol (=1:2) was added to the reaction mixture to quench the reaction. The reaction mixture was sufficiently mixed and distilled water (200 μL) was added to partition the mixture between a chloroform layer (lower layer) and an aqueous layer (upper layer). The chloroform layer (50 μL) was spotted on a thin layer chromatography silica gel plate (TLC plate, Merck) and developed with a solvent (n-hexane:diethyl ether:ethyl acetate:acetic acid=255:30:15:0.6). The developed TLC plate was dried, contacted with a BAS imaging plate (manufactured by FUJIFILM) and measured with BAS2500 (manufactured by FUJIFILM) 16 hr later to numerically show the amount of [^14C]-triglyceride (TG amount) produced during the reaction. The inhibitory rate was calculated by the following formula:
Inhibitory rate (%)=(1−(TG amount with addition of test compound−blank TG amount)/(control TG amount−blank TG amount))×100 […]
By IC50 is commonly meant the concentration needed to halve the response being measured. For the molecule `O=C(NCCNC(=O)C1CCc2nc(-c3ccccc3)sc2C1)c1cn(-c2ccccc2)nc1C(F)(F)F` (centres unmarked) [Example E175, 2-phenyl-N-(2-(1-phenyl-3-(trifluoromethyl)-1H-pyrazole-4-carboxamido)ethyl)-4,5,6,7-tetrahydrobenzo[d]thiazole-6-carboxamide], the concentration for half-maximal inhibition (IC50) lay within 0.01 to 0.1 µM.

Turning to `Cn1cnc(-c2ccccc2)c1C1CCN(C(=O)NCCNC(=O)c2cn(-c3ccccc3)nc2C(F)(F)F)CC1` [Example E207, 4-(1-methyl-4-phenyl-1H-imidazol-5-yl)-N-(2-(1-phenyl-3-(trifluoromethyl)-1H-pyrazole-4-carboxamido)ethyl)piperidine-1-carboxamide], the IC50 was 0.1 to 1 µM. Take `CC1CN(C(=O)NCCNC(=O)c2cn(-c3ccccc3)nc2C(F)(F)F)CCN1c1ccccc1` (centres unmarked) [Example E64, 3-methyl-4-phenyl-N-(2-(1-phenyl-3-(trifluoromethyl)-1H-pyrazole-4-carboxamido)ethyl)piperazine-1-carboxamide]: the IC50 lay within 0.01 to 0.1 µM. `O=C(NCCNC(=O)C1CCc2c(cnn2-c2ccccc2)C1)c1cn(-c2ccccc2)nc1C(F)(F)F` (centres unmarked) [Example E179, 1-phenyl-N-(2-(1-phenyl-3-(trifluoromethyl)-1H-pyrazole-4-carboxamido)ethyl)-4,5,6,7-tetrahydro-1H-indazole-5-carboxamide]: the IC50 lay in the range of 0.01 to 0.1 µM. The result for `O=C(NCCNC(=O)[C@H]1CC[C@H](c2nnc(-c3ccccc3)[nH]2)CC1)c1cn(-c2ccccc2)nc1C(F)(F)F` [Example E229, 1-Phenyl-N-(2-(trans-4-(5-phenyl-4H-1,2,4-triazol-3-yl)cyclohexanecarboxamido)ethyl)-3-(trifluoromethyl)-1H-pyrazole-4-carboxamide] reads 0.1 to 1 µM; that for `O=C(NCCNC(=O)[C@H]1CC[C@H](C(=O)c2ccccc2)CC1)c1cn(-c2ccccc2)nc1C(F)(F)F` [Example E65, N-(2-(trans-4-benzoylcyclohexanecarboxamido)ethyl)-1-phenyl-3-(trifluoromethyl)-1H-pyrazole-4-carboxamide], 0.01 to 0.1 µM; that for `O=C(NCCNC(=O)[C@H]1CC[C@H](C(=O)c2ccccc2)CC1)c1cn(-c2ccccc2Cl)nc1C(F)(F)F` [Example E164, N-(2-(trans-4-benzoylcyclohexanecarboxamido)ethyl)-1-(2-chlorophenyl)-3-(trifluoromethyl)-1H-pyrazole-4-carboxamide], 0.01 to 0.1 µM.

For `O=C(NCCNC(=O)N1CCC(C(=O)c2ccccc2)C1)c1cn(-c2ccccc2)nc1C(F)(F)F` (centres unmarked) [Example E189, N-(2-(3-benzoylpyrrolidine-1-carboxamido)ethyl)-1-phenyl-3-(trifluoromethyl)-1H-pyrazole-4-carboxamide], the IC50 lay in the range of 0.01 to 0.1 µM. Turning to `CC(C)c1nnc([C@H]2CC[C@H](C(=O)NCCNC(=O)c3cn(-c4ccccc4)nc3C(F)(F)F)N(C)C2)o1` (relative stereo) [Example E267, trans-5-(5-isopropyl-1,3,4-oxadiazol-2-yl)-1-methyl-N-(2-(1-phenyl-3-(trifluoromethyl)-1H-pyrazole-4-carboxamido)ethyl)piperidine-2-carboxamide], the IC50 is 0.1 to 1 µM.

As for `CC(C)c1nc(C2CCN(C(=O)NCCNC(=O)c3cn(-c4ccccc4)nc3C(F)(F)F)CC2)no1` [Example E225, 4-(5-isopropyl-1,2,4-oxadiazol-3-yl)-N-(2-(1-phenyl-3-(trifluoromethyl)-1H-pyrazole-4-carboxamido)ethyl)piperidine-1-carboxamide], the IC50 fell in the range of 0.1 to 1 µM.

As to `O=C(NCCNC(=O)C1CCC(c2ccccc2)CC1)c1cn(-c2ccccc2)nc1C(F)(F)F` (centres unmarked) [Example E105, 1-phenyl-N-(2-(4-phenylcyclohexanecarboxamido)ethyl)-3-(trifluoromethyl)-1H-pyrazole-4-carboxamide], the IC50 is under 0.01 µM. On to `O=C(NCCNC(=O)C1CCN(S(=O)(=O)c2ccccc2)CC1)c1cn(-c2ccccc2)nc1C(F)(F)F` [Example E34, N-(2-(1-phenyl-3-(trifluoromethyl)-1H-pyrazole-4-carboxamido)ethyl)-1-(phenylsulfonyl)piperidine-4-carboxamide], for which the IC50 lay within 0.01 to 0.1 µM.

As for `CC(C)c1nnc([C@H]2CC[C@H](C(=O)NCCNC(=O)c3cn(-c4ccccc4F)c4ccccc34)CC2)o1` [Example E265, 1-(2-fluorophenyl)-N-(2-(trans-4-(5-isopropyl-1,3,4-oxadiazol-2-yl)cyclohexanecarboxamido)ethyl)-1H-indole-3-carboxamide], the concentration for half-maximal inhibition (IC50) fell in the range of 0.01 to 0.1 µM. As for `CC(C)c1nc([C@H]2CC[C@H](C(=O)NCCNC(=O)c3cn(-c4ccccc4Cl)nc3C(F)(F)F)CC2)no1` [Example E257, 1-(2-chlorophenyl)-N-(2-(trans-4-(5-isopropyl-1,2,4-oxadiazol-3-yl)cyclohexanecarboxamido)ethyl)-3-(trifluoromethyl)-1H-pyrazole-4-carboxamide], the IC50 fell in the range of 0.01 to 0.1 µM.

Consider `CC(C)c1nc([C@H]2CC[C@H](C(=O)NCCNC(=O)c3cn(-c4ccccc4F)nc3C(F)(F)F)CC2)no1` [Example E260, 1-(2-fluorophenyl)-N-(2-(trans-4-(5-isopropyl-1,2,4-oxadiazol-3-yl)cyclohexanecarboxamido)ethyl)-3-(trifluoromethyl)-1H-pyrazole-4-carboxamide], for which the IC50 was in the range of 0.01 to 0.1 µM. As for `CC(C)c1nnc([C@H]2CC[C@H](C(=O)NCCNC(=O)c3cn(-c4ccccc4)nc3C(F)(F)F)CC2)o1` [Example E163, N-(2-(trans-4-(5-isopropyl-1,3,4-oxadiazol-2-yl)cyclohexanecarboxamido)ethyl)-1-phenyl-3-(trifluoromethyl)-1H-pyrazole-4-carboxamide], the IC50 fell in the range of 0.01 to 0.1 µM.

Take `O=C(NCCNC(=O)[C@H]1CC[C@H](c2nc(C3CC3)no2)CC1)c1cn(-c2ccccc2)nc1C(F)(F)F` [Example E151, N-(2-(trans-4-(3-Cyclopropyl-1,2,4-oxadiazol-5-yl)cyclohexanecarboxamido)ethyl)-1-phenyl-3-(trifluoromethyl)-1H-pyrazole-4-carboxamide]: the half-inhibitory concentration (IC50) was 0.01 to 0.1 µM.

The values are drawn from patent US20120065196A1, “AMIDE COMPOUNDS” (priority 2006, published 2012).
